{"source": "paper PMC10766962", "about": "(Nature Communications, 2024)", "key": {"[1]": {"system": "GFP-RSV live virus (RSV A2)"}}, "note": "Positions of bridges follow the written chain, without caps; N, C: chain ends. Non-standard residues stand in square brackets, D forms with d. Residues, ends and D or L forms follow the SMILES beside them. Groups on a side chain read outwards from the residue. *: point of attachment. Acetyl(2-S-cholesteryl) = CC(C)CCC[C@@H](C)[C@H]1CC[C@H]2[C@@H]3CC=C4C[C@@H](SCC(=O)*)CC[C@]4(C)[C@H]3CC[C@]12C; PEG16 = NCCOCCOCCOCCOCCOCCOCCOCCOCCOCCOCCOCCOCCOCCOCCOCCOCCC(=O)O; R8 = C=CCCCCCC[C@@](C)(N)C(=O)O; S5 = C=CCCC[C@](C)(N)C(=O)O"}
{"compound": "CC[C@H](C)[C@H](NC(=O)[C@H](CO)NC(=O)[C@H](C)NC(=O)[C@H](CC(=O)O)NC(=O)[C@H](Cc1ccccc1)NC(C)=O)C(=O)N[C@@H](CO)C(=O)N[C@@H](CCC(N)=O)C(=O)N[C@H](C(=O)N[C@@H](CC(N)=O)C(=O)N[C@@H](CCC(=O)O)C(=O)N[C@@H](CCCCN)C(=O)N[C@H](C(=O)N[C@@H](CC(N)=O)C(=O)N[C@@H](CCC(N)=O)C(=O)N[C@@H](CO)C(=O)N[C@@H](CC(C)C)C(=O)N[C@]1(C)CCCCCCC=CCCC[C@@](C)(C(=O)N[C@@H](CC(C)C)C(=O)N[C@@H](CC(C)C)C(=O)N[C@@H](Cc2c[nH]cn2)C(=O)N[C@@H](CC(N)=O)C(=O)N[C@H](C(=O)N[C@@H](CCCCNC(=O)CCOCCOCCOCCOCCOCCOCCOCCOCCOCCOCCOCCOCCOCCOCCOCCOCCNC(=O)CS[C@H]2CC[C@@]3(C)C(=CC[C@H]4[C@@H]5CC[C@H]([C@H](C)CCCC(C)C)[C@@]5(C)CC[C@@H]43)C2)C(N)=O)C(C)C)NC(=O)[C@H](CC(=O)O)NC(=O)[C@H](CO)NC(=O)[C@H](CCCCN)NC(=O)[C@H](CCCNC(=N)N)NC(=O)[C@H]([C@@H](C)CC)NC(=O)[C@H](Cc2ccccc2)NC1=O)[C@@H](C)CC)C(C)C", "note": "[SLI-RSV] (Ac-FDASISQVNEKINQSL[R8]FIRKSD[S5]LLHNVK([PEG16-Acetyl(2-S-cholesteryl)])-NH2; staple 17-24)", "values": [{"measurement": "cytotoxicity", "setting": "A549 cells", "result": "no cytotoxicity"}, {"measurement": "IC50", "setting": "[1]", "result": 58, "unit": "nM"}]}
